Source: patent US12077503B2, “Substituted cyclic amides and their use as herbicides” (FMC CORPORATION, priority 2015, dated 2024)

Assays:
Experiment in all cases: Test E preemergence
Type in all cases: in vivo
Settings in all cases: scale 0 to 100
[1] = tested on: goosegrass (Eleusine indica)
Summary of the method: (§1)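 Greenhouse test: seeds in silt loam treated preemergence, or 1- to 4-leaf plants in peat-based potting medium treated postemergence, with surfactant-containing solvent formulation of compound; assessed 14 to 21 d later. Scores use a 0 to 100 scale where 100 means complete control.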

[2] = tested on: nutsedge, yellow (yellow nutsedge, Cyperus esculentus)
Summary of the method: as §1

[3] = tested on: crabgrass, Brazil (Brazilian crabgrass, Digitaria horizontalis)
Summary of the method: as §1

[4] = tested on: sandbur (southern sandbur, Cenchrus echinatus)
Summary of the method: as §1

[5] = tested on: field bindweed (Convolvulus arvensis)
Summary of the method: as §1

corn (Zea mays) = tested on: corn (Zea mays)
Summary of the method: as §1

[6] = tested on: ryegrass, Italian (Italian ryegrass, Lolium multiflorum)
Summary of the method: as §1

[7] = tested on: arrowleaf Sida (Sida rhombifolia)
Summary of the method: as §1

soybean (Glycine max) = tested on: soybean (Glycine max)
Summary of the method: as §1

[8] = tested on: morningglory (Ipomoea coccinea)
Summary of the method: as §1

[9] = tested on: horseweed (Conyza canadensis)
Summary of the method: as §1

[10] = tested on: foxtail, green (green foxtail, Setaria viridis)
Summary of the method: as §1

[11] = tested on: foxtail, giant (giant foxtail, Setaria faberii)
Summary of the method: as §1

[12] = tested on: Panicum, fall (fall Panicum, Panicum dichotomiflorum)
Summary of the method: as §1

[13] = tested on: waterhemp (common waterhemp, Amaranthus rudis)
Summary of the method: as §1

[14] = tested on: surinam grass (Brachiaria decumbens)
Summary of the method: as §1

[15] = tested on: johnsongrass (Sorghum halepense)
Summary of the method: as §1

[16] = tested on: beggarticks (hairy beggarticks, Bidens pilosa)
Summary of the method: as §1

[17] = tested on: lambsquarters (Chenopodium album)
Summary of the method: as §1

[18] = tested on: dayflower, VA (Virginia dayflower, Commelina virginica)
Summary of the method: as §1

[19] = tested on: crabgrass, large (large crabgrass, Digitaria sangumnalis)
Summary of the method: as §1

CN1CC(c2cccc(C(F)(F)F)c2)C(C(=O)Nc2cccc(F)c2F)C1=O (stereo not drawn) [Compound 636]
25: Plant response rating: Waterhemp ([13]; 31 g ai/ha)
75: Plant response rating: Field Bindweed ([5]; 62 g ai/ha)
98: Plant response rating: Crabgrass, Brazil ([3]; 125 g ai/ha) | Plant response rating: Crabgrass, Brazil ([3]; 250 g ai/ha) | Plant response rating: Foxtail, Green ([10]; 250 g ai/ha) | Plant response rating: Johnsongrass ([15]; 250 g ai/ha) | Plant response rating: Crabgrass, Large ([19]; 31 g ai/ha) | Plant response rating: Crabgrass, Large ([19]; 62 g ai/ha) | Plant response rating: Crabgrass, Large ([19]; 125 g ai/ha) | Plant response rating: Crabgrass, Large ([19]; 250 g ai/ha)
70: Plant response rating: Field Bindweed ([5]; 250 g ai/ha) | Plant response rating: Corn (corn (Zea mays); 62 g ai/ha) | Plant response rating: Waterhemp ([13]; 125 g ai/ha)
65: Plant response rating: Corn (corn (Zea mays); 31 g ai/ha) | Plant response rating: Ryegrass, Italian ([6]; 62 g ai/ha) | Plant response rating: Arrowleaf Sida ([7]; 62 g ai/ha) | Plant response rating: Dayflower, VA ([18]; 250 g ai/ha)
100: Plant response rating: Panicum, Fall ([12]; 125 g ai/ha)
40: Plant response rating: Ryegrass, Italian ([6]; 31 g ai/ha) | Plant response rating: Surinam Grass ([14]; 31 g ai/ha)
80: Plant response rating: Goosegrass ([1]; 62 g ai/ha) | Plant response rating: Field Bindweed ([5]; 125 g ai/ha) | Plant response rating: Corn (corn (Zea mays); 125 g ai/ha) | Plant response rating: Corn (corn (Zea mays); 250 g ai/ha) | Plant response rating: Arrowleaf Sida ([7]; 125 g ai/ha) | Plant response rating: Waterhemp ([13]; 62 g ai/ha) | Plant response rating: Waterhemp ([13]; 250 g ai/ha)
95: Plant response rating: Goosegrass ([1]; 250 g ai/ha) | Plant response rating: Crabgrass, Brazil ([3]; 31 g ai/ha) | Plant response rating: Crabgrass, Brazil ([3]; 62 g ai/ha) | Plant response rating: Sandbur ([4]; 250 g ai/ha) | Plant response rating: Ryegrass, Italian ([6]; 125 g ai/ha) | Plant response rating: Ryegrass, Italian ([6]; 250 g ai/ha) | Plant response rating: Horseweed ([9]; 125 g ai/ha) | Plant response rating: Horseweed ([9]; 250 g ai/ha) | Plant response rating: Foxtail, Green ([10]; 31 g ai/ha) | Plant response rating: Foxtail, Green ([10]; 62 g ai/ha) | Plant response rating: Foxtail, Green ([10]; 125 g ai/ha) | Plant response rating: Foxtail, Giant ([11]; 31 g ai/ha) | Plant response rating: Foxtail, Giant ([11]; 62 g ai/ha) | Plant response rating: Foxtail, Giant ([11]; 125 g ai/ha) | Plant response rating: Foxtail, Giant ([11]; 250 g ai/ha) | Plant response rating: Surinam Grass ([14]; 125 g ai/ha) | Plant response rating: Surinam Grass ([14]; 250 g ai/ha) | Plant response rating: Johnsongrass ([15]; 62 g ai/ha) | Plant response rating: Johnsongrass ([15]; 125 g ai/ha)
60: Plant response rating: Nutsedge, Yellow ([2]; 250 g ai/ha)
0: Plant response rating: Nutsedge, Yellow ([2]; 31 g ai/ha) | Plant response rating: Nutsedge, Yellow ([2]; 62 g ai/ha) | Plant response rating: Nutsedge, Yellow ([2]; 125 g ai/ha) | Plant response rating: Field Bindweed ([5]; 31 g ai/ha) | Plant response rating: Soybean (soybean (Glycine max); 31 g ai/ha) | Plant response rating: Soybean (soybean (Glycine max); 62 g ai/ha) | Plant response rating: Soybean (soybean (Glycine max); 125 g ai/ha) | Plant response rating: Soybean (soybean (Glycine max); 250 g ai/ha) | Plant response rating: Morningglory ([8]; 31 g ai/ha) | Plant response rating: Morningglory ([8]; 62 g ai/ha) | Plant response rating: Morningglory ([8]; 125 g ai/ha) | Plant response rating: Morningglory ([8]; 250 g ai/ha) | Plant response rating: Horseweed ([9]; 31 g ai/ha) | Plant response rating: Beggarticks ([16]; 31 g ai/ha) | Plant response rating: Beggarticks ([16]; 62 g ai/ha) | Plant response rating: Beggarticks ([16]; 125 g ai/ha) | Plant response rating: Beggarticks ([16]; 250 g ai/ha) | Plant response rating: Dayflower, VA ([18]; 31 g ai/ha) | Plant response rating: Dayflower, VA ([18]; 62 g ai/ha)
50: Plant response rating: Goosegrass ([1]; 31 g ai/ha)
90: Plant response rating: Goosegrass ([1]; 125 g ai/ha) | Plant response rating: Sandbur ([4]; 31 g ai/ha) | Plant response rating: Sandbur ([4]; 62 g ai/ha) | Plant response rating: Sandbur ([4]; 125 g ai/ha) | Plant response rating: Arrowleaf Sida ([7]; 250 g ai/ha) | Plant response rating: Horseweed ([9]; 62 g ai/ha) | Plant response rating: Panicum, Fall ([12]; 31 g ai/ha) | Plant response rating: Panicum, Fall ([12]; 62 g ai/ha) | Plant response rating: Panicum, Fall ([12]; 250 g ai/ha) | Plant response rating: Surinam Grass ([14]; 62 g ai/ha) | Plant response rating: Johnsongrass ([15]; 31 g ai/ha) | Plant response rating: Lambsquarters ([17]; 31 g ai/ha) | Plant response rating: Lambsquarters ([17]; 62 g ai/ha) | Plant response rating: Lambsquarters ([17]; 125 g ai/ha) | Plant response rating: Lambsquarters ([17]; 250 g ai/ha)
35: Plant response rating: Arrowleaf Sida ([7]; 31 g ai/ha) | Plant response rating: Dayflower, VA ([18]; 125 g ai/ha)
